# In US11504394B2, “Targeted ionophore-based metal delivery” (The Regents of the University of California, priority 2018, dated 2022):
# Tests used:
# [1] = Log P, shake-flask octanol-water partition; format: physicochemical; conditions: n-octanol / PBS (pH=7.4), error = standard deviation
# Description: Log P measurements were performed with The shake-flask method based on compound partitioning between n-octanol and PBS (pH=7.4) layers. Octanol (saturated with PBS) and PBS (saturated with octanol) was obtained by vigorous mixing for one hour followed by layer separation in a separatory funnel over 24 hours. For Gal-Cu(gtsm): 500 μL of standard solutions were made with 100, 50, 20, 10, and 5 μM of Gal-Cu(gtsm) dissolved in PBS-saturated octanol. 50 mM stock solution in DMSO was diluted to 100 μM final concentration with 490/10, 480/20, and 460/40 μL of saturated octanol/PBS. For Cu(gtsm): 500 μL of standard solutions were made with 100, 50, 20, 10, and 5 μM of […]. 50 mM stock solution in DMSO was diluted to 100 μM final concentration with 10/490, […], and 50/450 μL of saturated octanol/PBS. All standards and samples were vortexed vigorously in 1.7 mL microcentrifuge tubes for 60 seconds, then spun down at 12,000 g for 2 mins in a microcentrifuge. 200 μL of each standard and sample were added to a clear 96-well plate, and the blank-subtracted absorbance at 470 nm was read in a Synergy M2 plate reader. All standards and samples were measured in duplicate. Log P values were calculated from the subsequent partition coefficients and averaged across the three partition conditions to obtain the final log P value. […]
# [2] = tested on: HEK 293T (no ASGPR expression) cells; experiment: Cellular copper delivery by ICP-MS, HEK 293T; format: cell-based; conditions: 4 μM, three hours, serum-free DMEM
# Description: Cells were maintained by the UC Berkeley Tissue Culture Facility. HEK 293T and HepG2 cells were maintained as a monolayer in exponential growth at 37° C. in a 5% CO2 atmosphere. HEK 293T cells were maintained in Dulbecco's Modified Eagle Medium (DMEM, Gibco) supplemented with 10% fetal bovine serum (FBS, Hyclone), and glutamax (Gibco). HepG2 cells were maintained in low glucose DMEM with L-glutamine and sodium pyruvate (Gibco). One day before ionophore treatment, cells were passaged and plated in DMEM with glutamax supplemented with 10% FBS on either poly D-lysine-coated (HEK 293T) or gelatin-coated (HepG2) sterile 6-well Corning polystyrene plates. Cells were grown to 60 to 80% confluency prior to ionophore treatment.
# Cells were washed twice with serum-free DMEM. 2 mM stock solutions of Cu(gtsm) or Gal-Cu(gtsm) were diluted in serum-free DMEM to a final ionophore concentration of 4 μM. […] Samples (150 μL) were further diluted in 2 mL 2% nitric acid (made freshly from concentrated nitric acid and Milli-Q water) in 15 mL tubes (Sarstedt) and analyzed on a Thermo Fisher iCAP Qc ICP mass spectrometer in kinetic energy discrimination (KED) mode against a standard curve of known copper and phosphorus concentrations (CMS-5, Inorganic Ventures), with Ga (20 μg/L, Inorganic Ventures) as an internal standard. […]
compound,measurement,setting,value
CNC1=N[N+]2=CC=[N+]3N=C(NCCOCCOCCOC4OC(CO)C(O)C(O)C4NC(C)=O)[S][Cu-2]23[S]1 (centres unmarked) [Gal-Cu(gtsm)],log P,[1],−1.03±0.10
same,Cu increase relative to basal levels (^63Cu/^31P),[2],does not increase cellular copper beyond basal levels
